Results reported in patent publication US8378117B2 (priority 2005, dated 2013).
pEC50, pIC50: −log10 of the molar value.

Key:
CB1 receptor [1] = target: T1, CB1 receptor (Homo sapiens, UniProt P21554); experiment: Binding assay for CB1 agonists or inverse agonists (SK-N-MC membranes, [3H]-CP-55,940); details: for pIC50: Cannabinoid CB1 Receptor Binding IC50, calculated by linear regression from percent inhibition at various test concentrations; for inhibition at 1 µM: read-out: CB1 receptor binding percent inhibition, test concentration 1 μM (footnote 1)
T1 construct: expressed in transfected cells
Outline: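 Radioligand displacement: [3H]-CP-55,940 at […], 90 min at 30° C, pH 7.5 Tris buffer with 0.5 mg/mL fatty-acid-free BSA, using semi-purified membranes of human-CB1-transfected SK-N-MC cells. Bound counts collected on GF/C filters, 10 uM WIN 55,212 for non-specific; IC50 from percent inhibition over several concentrations.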

CB2 receptor [2] = target: T2, CB2 receptor (Homo sapiens, UniProt P34972); experiment: Binding assay for CB2 agonists or inverse agonists (SK-N-MC membranes, [3H]-CP-55,940)
T2 construct: expressed in transfected cells
Outline: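 IC50 came from percent-inhibition data over several compound concentrations, fitted by linear regression. Binding used semi-purified membranes of human CB2-transfected SK-N-MC cells, 90 min at 30 °C, pH 7.5 Tris-HCl with MgCl2, EDTA and BSA, then filtration and scintillation counting.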

Male CD-1 mice = experiment: Oil of mustard induced colitis model; assay type: in vivo
Excerpt: In the distal colon, the oil of mustard colitis model is characterized by a discontinuous pattern of mucosal epithelial damage, submucosal edema, infiltration of inflammatory cells (including macrophages, neutrophils and lymphocytes) into the mucosa and submucosa, increased wet weight of the colon, shrinkage of the colon length, diarrhea and apparent inflammation (see, Kimball E. S., Palmer J. M., D'Andrea M. R., Homby P. J. and Wade P. R., Acute colitis induction by oil of mustard results in later development of an IBS-like accelerated upper GI transit in mice, Am. J Physiol. Gastrointest. Liver Physiol., 2005, 288: G 1266-1273).
Male CD-1 mice (Charles River Laboratories, Kingston, N.C.) (9-11 weeks old) and fresh oil of mustard (OM) (allyl isothiocyanate, 98% purity, Sigma-Aldrich St. Louis, Mo.) were used.
The mice (9 per treatment group) were briefly anesthetized with ketamine/xylasine (Sigma, St. Louis, Mo.) and a solution of 0.5% OM in 30% ethanol (50 μL) was administered intracolonically (to a depth of 4 cm) via syringe (equipped with a ball-tipped 22 G needle).
A test compound was orally administered one day prior to colitis induction for assessing a prophylactic regimen or one day post-induction for assessing a therapeutic regimen. A test compound was orally administered daily thereafter. Two days after OM administration, the last test compound dose was administered.
Three days after OM administration, the animals were sacrificed. The colons were resected, examined for signs of inflammation, weighed after removing fecal contents and the length from the aboral end of the cecum to the anus was measured. The fecal contents were examined for signs of diarrhea. The distal colon between the 1st and the 4th centimeter was removed and placed in 10% neutral buffered formalin for histological analysis.
The macroscopic observations of colon inflammation (a measure of colon damage), colon weight and length and stool consistency and appearance were assigned a score and used to evaluate colitis severity.
The four observation scores for each colon were combined, whereby a combined score of 0 represents a normal colon and a combined score of 15 represents a maximally affected colon. Statistical analyses were performed in Graphpad Prism 4.0 using ANOVA.
Histological analyses of tissues consisted of staining paraffin-embedded tissue sections with hematoxylin-eosin dye. The tissues were examined using light microscopy by an investigator who was blinded to the sample groups.
The microscopic observations of epithelial damage, cellular infiltration and damage or alteration of smooth muscle architecture (a measure of muscle damage) were assigned a score and used to evaluate colitis severity.
The scores for each colon were combined, whereby a combined score of 0 represents a normal colon and a combined score of 9 represents a maximally affected colon. Statistical analyses were performed in Graphpad Prism 4.0 using ANOVA.
The Macroscopic Score and Microscopic Score results for each treatment group in the prophylactic and therapeutic regimens were each combined into a mean score and expressed as % inhibition of colitis (% Inh). Test (#) represents the number of experiments at each dose level.

CB1 receptor [3] = target: T1, CB1 receptor; experiment: cell-based; details: CB1 Receptor Functional Agonist EC50, SK-N-MC cells, forskolin induced β-galactosidase activity
Outline: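 Read-out is forskolin-driven CRE-β-gal reporter activity in stably transfected human-CB1 SK-N-MC cells, normalised to vehicle (100%); agonism lowers, inverse agonism raises signal. Values are EC50 (linear regression, multiple concentrations) or % change at one concentration.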

CB2 receptor [4] = target: T2, CB2 receptor; experiment: Functional cell-based assay, CB2 receptor mediated change in CRE β-gal expression (SK-N-MC cells); details: CB2 Receptor Functional Agonist EC50, forskolin induced β-galactosidase activity, SK-N-MC cells
Excerpt: The CB1 and CB2 receptors are G-protein coupled receptors (GPCR), which influence cell function via the Gi-protein. These receptors modulate the activity of intracellular adenylate cyclase, which in turn produces the intracellular signal messenger cyclic-AMP (cAMP).
At baseline, or during non-ligand bound conditions, these receptors are constitutively active and tonically suppress adenylate cyclase activity. The binding of an agonist causes further receptor activation and produces additional suppression of adenylate cyclase activity. The binding of an inverse agonist inhibits the constitutive activity of the receptors and results in an increase in adenylate cyclase activity.
By monitoring intracellular adenylate cyclase activity, the ability of compounds to act as agonists or inverse agonists can be determined.
Test compounds were evaluated in SK-N-MC cells which, using standard transfection procedures, were stably transfected with human cDNA for pcDNA3-CRE β-gal and pcDNA3 CB1 receptor (human) or pcDNA3 CB2 receptor (human). By expressing CRE β-gal, the cells produced β-galactosidase in response to CRE promoter activation by cAMP. Cells expressing CRE β-gal and either the human CB1 or CB2 receptor will produce less β-galactosidase when treated with a CB1/CB2 agonist and will produce more β-galactosidase when treated with a CB1/CB2 inverse agonist.
The cells were grown in 96-well plates under standard cell culture conditions at 37° C. in a 5% CO2 atmosphere and culture media (wherein the media was supplemented with 2 mM L-glutamine, […] sodium pyruvate, 10% FBS (fetal bovine serum) and antibiotics).
For cells expressing CRE β-gal and the CB2 receptor, CB2 agonists reduced β-galactosidase activity in a dose-dependent manner and CB2 inverse agonists increase β-galactosidase activity in a dose-dependent manner.
The change in forskolin induced β-galactosidase activity was determined by setting a vehicle treated cell's activity value at 100% and expressing the β-galactosidase activity measured in a corresponding compound treated cell as a percent of the vehicle treated cell activity.
The EC50 value for functional activity for compounds tested was calculated by linear regression and was obtained from studies in which varying compound concentrations were used.

[5] = test concentration 0.2 μM (footnote 2), 0.2 µM
[6] = Therapeutic Regimen, 5 mg/kg oral, 5 mg/kg
[7] = Prophylactic Regimen, 2.5 mg/kg oral
[8] = Prophylactic Regimen, 5 mg/kg oral
[9] = Therapeutic Regimen, 5 mg/kg oral

T1 sequence (P21554 whole entry): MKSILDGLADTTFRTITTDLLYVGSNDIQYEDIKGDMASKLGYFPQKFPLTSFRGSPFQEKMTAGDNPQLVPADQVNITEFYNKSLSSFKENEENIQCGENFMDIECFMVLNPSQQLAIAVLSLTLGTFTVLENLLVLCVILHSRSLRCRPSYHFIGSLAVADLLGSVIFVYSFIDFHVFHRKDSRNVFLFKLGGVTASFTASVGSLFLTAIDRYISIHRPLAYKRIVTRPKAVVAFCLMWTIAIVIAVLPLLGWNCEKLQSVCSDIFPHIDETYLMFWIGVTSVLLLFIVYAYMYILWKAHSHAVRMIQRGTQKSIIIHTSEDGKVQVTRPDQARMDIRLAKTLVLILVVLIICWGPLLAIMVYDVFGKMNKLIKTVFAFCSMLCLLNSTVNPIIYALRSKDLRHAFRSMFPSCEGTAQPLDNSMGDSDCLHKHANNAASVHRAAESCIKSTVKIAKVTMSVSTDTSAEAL
T2 sequence (P34972 whole entry): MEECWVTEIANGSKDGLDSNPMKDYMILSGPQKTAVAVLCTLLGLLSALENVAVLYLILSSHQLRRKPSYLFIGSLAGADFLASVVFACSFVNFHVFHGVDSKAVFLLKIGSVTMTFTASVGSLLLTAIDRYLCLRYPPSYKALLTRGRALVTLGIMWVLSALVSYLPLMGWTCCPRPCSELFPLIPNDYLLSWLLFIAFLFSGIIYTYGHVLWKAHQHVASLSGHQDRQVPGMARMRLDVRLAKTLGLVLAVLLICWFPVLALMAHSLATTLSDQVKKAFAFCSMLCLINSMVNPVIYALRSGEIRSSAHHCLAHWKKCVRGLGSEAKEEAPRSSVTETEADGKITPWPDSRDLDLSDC

SMILES	CB1 receptor binding percent inhibition (CB1 receptor [1]; [5])	CB2 receptor binding percent inhibition (CB2 receptor [2]; [5])	% Inh (Macro), % inhibition of colitis, macroscopic score (Male CD-1 mice; [6]) [%]	pIC50 (CB1 receptor [1])	pEC50 (CB1 receptor [3])	inhibition at 1 µM (CB1 receptor [1]) [%]	CB2 receptor binding percent inhibition (CB2 receptor [2]; test concentration not stated) [%]	% Inh (Macro), % inhibition of colitis, macroscopic score (Male CD-1 mice; [7]) [%]	% Inh (Macro), % inhibition of colitis, macroscopic score (Male CD-1 mice; [8]) [%]	% Inh (Macro), % inhibition of colitis, macroscopic score (Male CD-1 mice; [9]) [%]	also measured
O=C(N[C@@H](CO)c1ccccc1)c1n[nH]c2c1CCCCC2Cc1cccc(Cl)c1 (stereo in doubt) [Cpd 228, (8S*)-8-(3-chloro-benzyl)-1,4,5,6,7,8-hexahydro-cycloheptapyrazole-3-carboxylic acid [(1R)-2-hydroxy-1-phenyl-ethyl]-amide]	^(2)0%	^(2)45%	51.7 ± 13.2								
O=C(N[C@@H](CO)c1ccccc1)c1n[nH]c2c1CCCCC2Cc1cccc(Cl)c1 (stereo in doubt) [Cpd 229, (8R*)-8-(3-chloro-benzyl)-1,4,5,6,7,8-hexahydro-cycloheptapyrazole-3-carboxylic acid [(1R)-2-hydroxy-1-phenyl-ethyl]-amide]	73%	95%	56.9 ± 11.6	7.22	7.22						pIC50 (CB2 receptor [2]; Cannabinoid CB2 Receptor Binding IC50, calculated by linear regression from percent inhibition at various test concentrations): 7.70; pEC50 (CB2 receptor [4]): 8.70
C[C@H](NS(=O)(=O)/C=C/c1n[nH]c2c1CCCCC2Cc1cccc(F)c1)c1ccccc1 (stereo partly drawn) [Cpd 96, (2E)-2-[8-(3-fluoro-benzyl)-1,4,5,6,7,8-hexahydro-cycloheptapyrazol-3-yl]-ethenesulfonic acid [(1S)-1-phenyl-ethyl]-amide]						0	72	8.0 ± 16.7	10.8 ± 13.4	7.6 ± 11.5	inhibition at 0.015 µM (CB2 receptor [2]; test concentration 0.015 μM (footnote 7), read-out: CB2 receptor binding percent inhibition): 50%; inhibition at 1 µM (CB2 receptor [2]; test concentration 1 μM (footnote 1), read-out: CB2 receptor binding percent inhibition): 94%
C[C@H](NS(=O)(=O)/C=C/c1n[nH]c2c1CCCCC2Cc1ccc(F)cc1)c1ccccc1 (stereo partly drawn) [Cpd 108, (2E)-2-[8-(4-fluoro-benzyl)-1,4,5,6,7,8-hexahydro-cycloheptapyrazol-3-yl]-ethenesulfonic acid [(1S)-1-phenyl-ethyl]-amide]						55	100	51.2 ± 19.1	13.4 ± 13.3		inhibition at 0.5 µM (CB1 receptor [1]; read-out: CB1 receptor binding percent inhibition, test concentration 0.5 μM (footnote 10)): 33%; CB1 receptor binding percent inhibition (CB1 receptor [1]; test concentration not stated): 44%
C[C@H](NC(=O)c1nn(-c2cc(Cl)ccc2Cl)c2c1CCCC/C2=C\c1ccc(Cl)cc1)c1ccccc1 [Cpd 198, (8E)-8-(4-chloro-benzylidene)-1-(2,5-dichloro-phenyl)-1,4,5,6,7,8-hexahydro-cycloheptapyrazole-3-carboxylic acid [(1S)-1-phenyl-ethyl]-amide]				7.70	7.70					41.0 ± 17	inhibition at 0.2 µM (CB1 receptor [1]; read-out: CB1 receptor binding percent inhibition): 87%; inhibition at 0.2 µM (CB2 receptor [2]; read-out: CB2 receptor binding percent inhibition, test concentration 0.2 μM (footnote 2)): 68%
